Like-named read-outs stand apart in the source and are kept apart here.
What was measured:
[1] = system: P. falciparum 3D7 parasites; test: P. falciparum growth inhibition assay, 2-cycle (120 h treatment), delayed-death screen and dose-response; format: cell-based, Plasmodium falciparum; conditions: for IC50: 3D7, read-out: IC50, P. falciparum, 120 h dose-response (delayed-death)
[2] = system: P. falciparum 3D7 parasites; test: P. falciparum growth inhibition assay, 1-cycle (72 h treatment), SYBR DNA staining (library screen at 2 μg/mL and dose-response); format: cell-based, Plasmodium falciparum; conditions: for Screen (P. falciparum): 3D7, 72 h, DD from the 120 h timepoint; for activity in the screen against P. falciparum: 2 μg/mL, active = ≥80 % growth inhibition
[3] = system: T. gondii RH strain (RH-Tub-eYFP) tachyzoites; test: microbe, parasite or virus in culture; format: cell-based, Toxoplasma gondii
P. falciparum = conditions: cited from earlier work
[4] = system: human neonatal foreskin fibroblast (NFF); test: Cytotoxicity screen at 5 μg/mL, resazurin dye assay, 96 h
Leishmania = conditions: ref Filho et al., 2024; cited from earlier work
[5] = P. falciparum, growth at 72 h / growth at 120 h, 2 μg/mL
[6] = Plasmodium falciparum, 3D7; P. falciparum, 2 μg/mL, 120 h; read-out: 2) Growth (%) at 120 h
[7] = Plasmodium falciparum, 3D7, library screen at 2 μg/mL, 120 h, % growth, replicate 1, read-out: Pf_120h_%Growth_Rep1
[8] = Plasmodium falciparum, 3D7, library screen at 2 μg/mL, 120 h, % growth, replicate 2, read-out: Pf_120h_%Growth_Rep2
[9] = Plasmodium falciparum, 3D7; P. falciparum, 2 μg/mL, 72 h; read-out: 1) Growth (%) at 72 h
[10] = Plasmodium falciparum, 3D7, library screen at 2 μg/mL, 72 h, % growth, replicate 1, read-out: Pf_72h_%Growth_Rep1
[11] = Plasmodium falciparum, 3D7, library screen at 2 μg/mL, 72 h, % growth, replicate 2, read-out: Pf_72h_%Growth_Rep2
[12] = Toxoplasma gondii, 72 h, library screen at 2 μg/mL, 72 h, % growth, replicate 1; read-out: Tg_72h_%Growth_Rep1
[13] = Toxoplasma gondii, 72 h, library screen at 2 μg/mL, 72 h, % growth, replicate 2; read-out: Tg_72h_%Growth_Rep2
[14] = 48–72 h, ref Wilson et al., 2013, read-out: IC50 at 48–72 h
[15] = Plasmodium falciparum, 3D7, P. falciparum, 120 h, screen at 2 μg/mL, replicate 1, read-out: Pf_120h_%Growth_Rep1
[16] = Plasmodium falciparum, 3D7, P. falciparum, 120 h, screen at 2 μg/mL, replicate 2, read-out: Pf_120h_%Growth_Rep2
[17] = fibroblasts over T. gondii, for cryptopleurine the parasite is not stated
[18] = Plasmodium falciparum, 3D7, P. falciparum, 72 h, screen at 2 μg/mL, replicate 1, read-out: Pf_72h_%Growth_Rep1
[19] = Plasmodium falciparum, 3D7, P. falciparum, 72 h, screen at 2 μg/mL, replicate 2, read-out: Pf_72h_%Growth_Rep2
[20] = Plasmodium falciparum, 3D7, 72 h treatment, mean ± S.D., n ≥ 3, read-out: IC50 (μM), P. falciparum
[21] = 2 μg/mL, 72 h, active = ≥80 % growth inhibition
[22] = Toxoplasma gondii; RH strain, 72 h, mean ± S.D., n ≥ 3; read-out: IC50 (μM), T. gondii (converted)
[23] = Plasmodium falciparum, 3D7, P. falciparum, 120 h, parasite screen 2 μg/mL, % growth, replicate 1, read-out: Pf_120h_%Growth_Rep1
[24] = Plasmodium falciparum, 3D7, P. falciparum, 120 h, parasite screen 2 μg/mL, % growth, replicate 2, read-out: Pf_120h_%Growth_Rep2
[25] = Plasmodium falciparum, 3D7, P. falciparum, 72 h, parasite screen 2 μg/mL, % growth, replicate 1, read-out: Pf_72h_%Growth_Rep1
[26] = Plasmodium falciparum, 3D7, P. falciparum, 72 h, parasite screen 2 μg/mL, % growth, replicate 2, read-out: Pf_72h_%Growth_Rep2
[27] = Toxoplasma gondii, 72 h, T. gondii, 72 h, parasite screen 2 μg/mL, % growth, replicate 1; read-out: Tg_72h_%Growth_Rep1
[28] = Toxoplasma gondii, 72 h, T. gondii, 72 h, parasite screen 2 μg/mL, % growth, replicate 2; read-out: Tg_72h_%Growth_Rep2
[29] = library screen at 2 μg/mL, 72 h, % growth, replicate 1
[30] = library screen at 2 μg/mL, 72 h, % growth, replicate 2

With CC[C@H]1OC(=O)[C@H](C)[C@@H](O[C@H]2C[C@@](C)(OC)[C@@H](O)[C@H](C)O2)[C@H](C)[C@@H](O[C@@H]2O[C@H](C)C[C@H](N(C)C)[C@H]2O)[C@](C)(O)C[C@@H](C)CN(C)[C@H](C)[C@@H](O)[C@]1(C)O [Azithromycin, reference compound] the “3) Fold change (72 h/120 h)” value [1, 5] was 6.4, the activity at 2 µg/mL [1, 6] was 8.77% and the activity at 2 µg/mL [1, 7] was 17.2%. It also gave an activity at 2 µg/mL [1, 8] of 0.35%, an activity at 2 µg/mL [2, 9] of 56.2% and an activity at 2 µg/mL [2, 10] of 59.3%. The activity at 2 µg/mL [2, 11] was 53.1%, the percent parasite growth at 2 µg/mL [3, 12] was 41.8% and the percent parasite growth at 2 µg/mL [3, 13] was 36%. For the same compound, the IC50 (P. falciparum; [14]) was no less than 5 µM and the “IC50 at more than 96 h” value (P. falciparum; ref Wilson et al., 2013) was “low nanomolar range”.

In the case of C=C[C@]1(C)C[C@@H](OC(=O)CSC(C)(C)CNC(=O)[C@H](N)C(C)C)[C@]2(C)[C@H](C)CC[C@]3(CCC(=O)[C@H]32)[C@@H](C)[C@@H]1O [Valnemulin, reference compound], the “delayed-death activity in the 120 h screen against P. falciparum” value ([1]; 2 μg/mL, criteria: ≥40 % growth at 72 h, ≤20 % growth at 120 h, at least 5-fold) is reported as “meeting two of our three criteria for delayed-death activity”, the “3) Fold change (72 h/120 h)” value [1, 5] is reported as 3.7 and the IC50 ([1]; Plasmodium falciparum) is reported as 0.064 µM. It also gave an activity at 2 µg/mL [1, 6] of 13.4%, an activity at 2 µg/mL [1, 15] of 15% and an activity at 2 µg/mL [1, 16] of 11.8%. For the same compound, the selectivity index (HFF cells; [17]) was “greater than 100”, the activity at 2 µg/mL [2, 9] was 50.1% and the activity at 2 µg/mL [2, 18] was 44.3%. The activity at 2 µg/mL [2, 19] was 55.9%, the IC50 [2, 20] was greater than 1 µM and the “Screen (P. falciparum)” value ([2]; library screen at 2 μg/mL) was “DD^”. For the same compound, the “activity in the screen against T. gondii” value [3, 21] was “active against T. gondii”, the percent parasite growth at 2 µg/mL ([3]; Toxoplasma gondii, 72 h, T. gondii, 72 h, screen at 2 μg/mL, replicate 1; read-out: Tg_72h_%Growth_Rep1) was 13.1% and the percent parasite growth at 2 µg/mL ([3]; Toxoplasma gondii, 72 h, T. gondii, 72 h, screen at 2 μg/mL, replicate 2; read-out: Tg_72h_%Growth_Rep2) was 19.6%. It also gave an IC50 [3, 22] of 0.232 µM.

In the case of COCC(=O)N[C@@H](C(=O)N1NCCC[C@H]1C(=O)N[C@@H](Cc1ccccc1)[C@@H](O)[C@H](C)C(=O)N[C@H]1CCN(C(N)=O)C1=O)[C@H](O)C(C)C [Padanamide A], the “activity in the screen against P. falciparum” value ([2]; 72 h) is listed as “active against P. falciparum” and the IC50 (P. falciparum; another study, ref Cheng et al., 2015, read-out: IC50 in P. falciparum) is listed as roughly 0.2 µM.

For CC(/C=C/C[C@@H](C)/C=C(C)/C=C/[C@@H]1OC(=O)C=C[C@@H]1C)=C\[C@@H](C)C(=O)[C@@H](C)[C@H](O)[C@@H](C)C/C(C)=C/C(=O)O [leptomycin A], the “cytotoxic activity in the screen against fibroblasts” value [4] was “cytotoxic activity”.

For C[C@H]1c2cccc(O)c2C(=O)C2=C(O)[C@]3(O)C(=O)C(C(N)=O)=C(O)[C@@H](N(C)C)[C@@H]3[C@@H](O)[C@@H]21 [Doxycycline, reference compound], the “3) Fold change (72 h/120 h)” value [1] was 6.3, the activity at 2 µg/mL [1, 6] was 7.68% and the activity at 2 µg/mL [1, 7] was 8.86%. The activity at 2 µg/mL [1, 8] was 6.5%, the activity at 2 µg/mL [2, 9] was 48.6% and the activity at 2 µg/mL [2, 10] was 55.3%. For the same compound, the activity at 2 µg/mL [2, 11] was 41.9%, the percent parasite growth at 2 µg/mL [3, 12] was 41% and the percent parasite growth at 2 µg/mL [3, 13] was 47.5%. The IC50 (P. falciparum; [14]) was no less than 5 µM and the “IC50 at more than 96 h” value (P. falciparum; ref Wilson et al., 2013) was “low nanomolar range”.

Compound C=C[C@]1(C)C[C@@H](OC(=O)CS[C@@H]2C[C@H]3CC[C@@H](C2)N3C)[C@]2(C)[C@H](C)CC[C@]3(CCC(=O)[C@H]32)[C@@H](C)[C@@H]1O [Retapamulin, reference compound] has an IC50 ([1]; Plasmodium falciparum) of 0.106 µM, an activity at 2 µg/mL [1, 23] of -0.64% and an activity at 2 µg/mL [1, 24] of 3.58%. For the same compound, the selectivity index (HFF cells) was “greater than 100”, the “activity in the screen against P. falciparum” value ([2]; 72 h) was “active against both P. falciparum and T. gondii” and the activity at 2 µg/mL [2, 25] was 8.14%. The activity at 2 µg/mL [2, 26] was 8.89%, the IC50 [2, 20] was greater than 1 µM and the “Screen (P. falciparum)” value ([2]; library screen at 2 μg/mL) was “A, A”. For the same compound, the “activity in the screen against T. gondii” value [3, 21] was “active against both P. falciparum and T. gondii”, the percent parasite growth at 2 µg/mL [3, 27] was 2.49% and the percent parasite growth at 2 µg/mL [3, 28] was 9.45%. For the same compound, the IC50 [3, 22] was 0.085 µM and the “Screen (T. gondii)” value ([3]; library screen at 2 μg/mL, RH strain, 72 h) was “A, A”.

Beauvericin showed a Pf_120h_%Growth_Rep1 ([1]; library screen at 2 μg/mL, 120 h, % growth, replicate 1) of 4.73%, a Pf_120h_%Growth_Rep2 ([1]; library screen at 2 μg/mL, 120 h, % growth, replicate 2) of 5.37% and an IC50 ([2]; 3D7, 72 h treatment, mean ± S.D., n ≥ 3, read-out: IC50 (μM), P. falciparum) of 0.499 ± 0.029 µM. The IC50 ([2]; 72 h treatment, read-out: IC50, P. falciparum) was 0.5 µM, the Pf_72h_%Growth_Rep1 [2, 29] was 7.31% and the Pf_72h_%Growth_Rep2 [2, 30] was 5.24%. The Tg_72h_%Growth_Rep1 [3, 29] was 86.72%, the Tg_72h_%Growth_Rep2 [3, 30] was 89.12% and the “reported activity in Leishmania” value (Leishmania) was “around 1 μM”.

With Pladienolide B the selectivity index (HFF cells; [17]) was 7, the IC50 (HFF cells; read-out: IC50, cytotoxicity against human fibroblasts, HFF, 72 h) was 0.047 µM and the “activity in the screen against P. falciparum” value ([2]; 72 h) was “active against T. gondii but not P. falciparum”. The “activity in the screen against T. gondii” value [3, 21] was “active against T. gondii but not P. falciparum” and the IC50 ([3]; 72 h; read-out: IC50, T. gondii) was 0.0067 ± 0.0044 µM.

For CC[C@H]1OC(=O)[C@H](C)[C@@H](O[C@H]2C[C@@](C)(OC)[C@@H](O)[C@H](C)O2)[C@H](C)[C@@H](O[C@@H]2O[C@H](C)C[C@H](N(C)C)[C@H]2O)[C@](C)(O)C[C@@H](C)/C(=N\OCOCCOC)[C@H](C)[C@@H](O)[C@]1(C)O [Roxithromycin, reference compound], the “3) Fold change (72 h/120 h)” value [1] was 3.6, the activity at 2 µg/mL [1, 6] was 8.49% and the activity at 2 µg/mL [1, 23] was 18.3%. For the same compound, the activity at 2 µg/mL [1, 24] was -1.36%, the activity at 2 µg/mL [2, 9] was 30.9% and the activity at 2 µg/mL [2, 25] was 34.6%. The activity at 2 µg/mL [2, 26] was 27.2%, the percent parasite growth at 2 µg/mL [3, 27] was 33.7% and the percent parasite growth at 2 µg/mL [3, 28] was 33.3%. The IC50 (P. falciparum; 48 h, ref Min et al., 2007, read-out: IC50 at 48 h) was roughly 4 µM and the IC50 (P. falciparum; increased treatment duration, ref Min et al., 2007, read-out: IC50 with increased treatment duration) was 1 to 2 µM.

For C=C(NC(=O)C(=C)NC(=O)c1csc(C2=N[C@@H]3c4csc(n4)[C@H]4NC(=O)c5csc(n5)[C@H]([C@](C)(O)[C@@H](C)O)NC(=O)[C@H]5CSC(=N5)/C(=C/C)NC(=O)[C@H]([C@@H](C)O)NC(=O)c5csc(n5)[C@]3(CC2)NC(=O)[C@H](C)NC(=O)C(=C)NC(=O)[C@H](C)NC(=O)[C@H]([C@@H](C)CC)N[C@@H]2C=Cc3c([C@H](C)O)cc(nc3[C@H]2O)C(=O)O[C@@H]4C)n1)C(N)=O [thiostrepton, reference compound], the activity at 2 µg/mL [1, 15] was 60.6%, the activity at 2 µg/mL [1, 16] was 35.5% and the activity at 2 µg/mL [2, 18] was 56.7%. The activity at 2 µg/mL [2, 19] was 65.2%, the percent parasite growth at 2 µg/mL ([3]; Toxoplasma gondii; T. gondii, 72 h, screen at 2 μg/mL, replicate 1; read-out: Tg_72h_%Growth_Rep1) was 86.7% and the percent parasite growth at 2 µg/mL ([3]; Toxoplasma gondii; T. gondii, 72 h, screen at 2 μg/mL, replicate 2; read-out: Tg_72h_%Growth_Rep2) was 93.6%. For the same compound, the IC50 (P. falciparum; ref Aminake et al., 2011, Schoof et al., 2010, read-out: IC50 in Plasmodium) was roughly 10 µM.
